Data reported in patent US11193004B2, “Phosphoric ester preparations with reduced hygroscopicity” (LANXESS Deutschland GmbH, priority 2013, dated 2021).

Experiments:
[1] = Solubility in water of phosphoric esters b)
[2] = physchem; details: 25 °C, water

Row | Compound | Solubility in water at 25° C. [1] | solubility [2]
1 | O=P(OC(CCl)CCl)(OC(CCl)CCl)OC(CCl)CCl [TDCP, Tris(2,3-dichloroisopropyl) phosphate] | 100 µg/mL | –
2 | CCOP(=O)(OCC)OCC [TEP, Triethyl phosphate] | miscible | > 3000 µg/mL
3 | Diphenyl cresyl phosphate [DPC] | 2.6 µg/mL | –
4 | Isopropylated triphenyl phosphate [IPP] | 0.33 µg/mL | –
